What was measured:
Bcl-XL = Bcl-XL (Homo sapiens, UniProt Q07817); conditions: read-out: inhibitory concentration of 50% (IC50), displacing BH3 peptides; cited from earlier work
Bcl-B = biological target: T1, Bcl-B (Homo sapiens, UniProt Q9HD36); conditions: read-out: inhibitory concentration of 50% (IC50), displacing BH3 peptides; cited from earlier work
T1 sequence (Q9HD36 1-204): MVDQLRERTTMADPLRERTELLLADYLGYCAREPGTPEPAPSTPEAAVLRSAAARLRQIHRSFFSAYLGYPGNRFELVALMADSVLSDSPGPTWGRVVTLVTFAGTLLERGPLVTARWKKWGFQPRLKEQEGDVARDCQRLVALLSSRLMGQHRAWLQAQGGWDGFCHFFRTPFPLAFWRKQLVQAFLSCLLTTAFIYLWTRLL

Bfl-1 = biological target: T2, Bfl-1 (Homo sapiens, UniProt Q16548); conditions: read-out: inhibitory concentration of 50% (IC50), displacing BH3 peptides; cited from earlier work
T2 sequence (Q16548 1-175): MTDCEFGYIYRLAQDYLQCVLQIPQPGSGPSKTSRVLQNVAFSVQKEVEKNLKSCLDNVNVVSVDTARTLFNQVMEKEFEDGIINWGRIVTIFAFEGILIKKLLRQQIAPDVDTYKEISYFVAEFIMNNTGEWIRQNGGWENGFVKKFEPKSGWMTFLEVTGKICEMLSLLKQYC

Jurkat cells [1] = assay: anti-CD3-induced Ca2+ elevation by digital imaging; assay type: cell-based; conditions: Jurkat cells; 60 μM peptide with Chariot reagent
Protocol: (§1) FIGS. 6A-D illustrates peptide 2 (SEQ ID NO:3) Reverses Bcl-2's Inhibition of Anti-CD3-Induced Ca^2+Elevation. (A) Representative Ca^2+ traces (each the mean of ˜65 cells) recording anti-CD3 (arrow, time of addition)-induced Ca^2+ elevation in Bcl-2(+) WEHI7.2 cells. Peptide (60 μM) uptake was facilitated by Chariot reagent. (B) Peak anti-CD3 induced Ca^2+ elevation in Bcl-2(−) and Bcl-2(+) WEHI7.2 cells treated with peptides as in (A) [mean±SEM, five experiments for Bcl-2(−) and seven experiments for Bcl-2(+) cells, with mean 68 cells per sample per experiment]. (C) Representative Ca^2+ traces in Jurkat cells (mean 85 cells each). Treatment conditions are the same as in (A), except that a control involving addition of peptide 2 without Chariot reagent has been added. (D) Peak anti-CD3-induced Ca^2+ elevation in Jurkat cells treated with peptides as in (C) (mean±SEM, seven experiments, mean 81 cells per sample per experiment).
(§2) Next we investigated whether peptide 2 also reverses Bcl-2's inhibitory effect on Ca^2+ release through the IP3R in Bcl-2(+) and (−) WEHI7.2 clones, newly derived WEHI7.2 mixed populations exogenously expressing Bcl-2, and Jurkat cells. Optimal conditions for peptide delivery and anti-CD3 concentration were determined in preliminary experiments. Peptide delivery in the lipid bilayer is 100%, whereas the penetration of peptide 2 into cells is much less, accounting for the lesser effect in cells. Therefore, a higher concentration of peptide (60 μM) was delivered into cells using the Chariot delivery reagent. Cytoplasmic Ca^2+ concentration was continuously measured at a single-cell level by digital imaging during anti-CD3 treatment. Representative Ca^2+ traces from Bcl-2(+) WEHI7.2 cells are shown in FIG. 6A, and the average Ca^2+ elevation induced by anti-CD3 in seven experiments is summarized in FIG. 6B. Observed variations in lag phase are at least partially attributable to the fact that lymphocytes are only loosely adherent to coverslips and thus rapid buffer exchange is not possible during antibody additions. Peptide 2 enhanced anti-CD3-induced Ca^2+ elevation in Bcl-2(+) WEHI7.2 cells by 40%. […] Peptide 2 had no effect on Ca^2+ elevation when added to the cells in the absence of the Chariot reagent. […] The low Bcl-2 level in Jurkat cells and the barely detectable endogenous Bcl-2 in Bcl-2(−) WEHI7.2 cells are consistent with the higher amplitude and longer duration of the Ca^2+ response in these cells in contrast to Bcl-2(+) WEHI7.2 cells (compare FIGS. 6A and 6B to FIGS. 6C and 6D). Thus, peptide 2 modulated anti-CD3-induced Ca^2+ elevation in both Bcl-2(+) WEHI7.2 cells and Jurkat cells, consistent with the ability of peptide 2 to disrupt Bcl-2-IP3R interaction.

WEHI7.2 cells = assay: anti-CD3-induced Ca2+ elevation by digital imaging; assay type: cell-based; conditions: Bcl-2(+) WEHI7.2 cells; 60 μM peptide with Chariot reagent
Protocol: as §1, §2

Jurkat cells [2] = assay: anti-CD3-induced apoptosis (apoptotic nuclei); assay type: cell-based; conditions: 60 μM peptide with Chariot, 5 μg/ml anti-CD3, 24 hr, anti-CD3 alone 20%-30%
Protocol: FIG. 7 illustrates peptide 2 Enhances Anti-CD3-Induced Apoptosis in Bcl-2-Positive Cells (A) Typical apoptotic nuclear morphology (arrow, Hoechst 33342 stain) 24 hr after 5 μg/ml anti-CD3 treatment of Jurkat cells. Scale bars, 10 μm. (B) Bcl-2(−) and Bcl-2(+) WEHI7.2 cells were pre-incubated±60 μM peptides plus Chariot reagent and then incubated with 20 μg/ml anti-CD3 for 24 hr. Symbols represent the percentage of cells (mean±SEM) with apoptotic nuclei in three experiments for Bcl-2(−) and five experiments for Bcl-2(+) cells (200 cells counted per coverslip). (C) Jurkat cells were pre-incubated±60 μM peptides±Chariot reagent and then incubated with 5 μg/ml anti-CD3 for 24 hr. Symbols represent the percentage of cells (mean±SEM) with apoptotic nuclei in five experiments (240 cells counted per coverslip).
Peptide 2 also attenuated Bcl-2's inhibition of anti-CD3-induced apoptosis in Jurkat cells. In preliminary studies (data not shown), we tested several anti-CD3 concentrations. Higher concentrations of anti-CD3 induced high levels of apoptosis that might obscure the effect of the peptide. We therefore used 5 μg/ml anti-CD3, sufficient to induce 20%-30% apoptosis.

Bcl-2-IP3R interaction [3] = biological target: T3, Bcl-2-IP3R interaction (Homo sapiens, UniProt P10415); assay: GST pull-down of Bcl-2 from Bcl-2(+) WEHI7.2 extracts with GST-IP3R domain 3; assay type: binding, mouse; set-up: expressed in transfected cells; host or cells: Bcl-2(+) WEHI7.2 cells (source of Bcl-2); conditions: 1 mM peptide
T3 sequence (P10415 whole entry, the tested form may be a part): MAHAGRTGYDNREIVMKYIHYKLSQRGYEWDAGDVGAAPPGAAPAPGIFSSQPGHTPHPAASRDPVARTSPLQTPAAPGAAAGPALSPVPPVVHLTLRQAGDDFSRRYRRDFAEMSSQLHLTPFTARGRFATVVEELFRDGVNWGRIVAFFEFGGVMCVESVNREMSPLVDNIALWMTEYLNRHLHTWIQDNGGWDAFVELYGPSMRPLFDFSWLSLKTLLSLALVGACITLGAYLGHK
Description: To identify where Bcl-2 interacts on the IP3R, we used a series of GST-IP3R fusion constructs corresponding to five fragments covering the first N-terminal 2216 amino acids and 1 fragment corresponding to the last 160 amino acids of mouse IP3R type 1 (FIG. 3). These fragments are located in the cytoplasm and coincide with “natural” domains generated by limited proteolysis. The transmembrane domain was not included. After purification, fragments migrated as single prominent bands corresponding to their expected molecular weights, although some minor degradation products were detected.
The first set of GST pull-down experiments utilized extracts of Bcl-2(+) WEHI7.2 cells and Jurkat cells as two independent sources of Bcl-2. Cell extracts were incubated with GST-IP3R fragments prebound to glutathione sepharose resin, with equal loading of the GST-IP3R fragments. […] These experiments were repeated a total of five times with the same result. It is important to note that, following incubation of cell extracts with GST-IP3R fragments on the glutathione sepharose resin, the resin was washed extensively.
Since the IP3R binding region was narrowed down to the 80 amino acid subdomain 3a1 (aa 1347-1426), we designed two 20 amino acid peptides (peptide 1, aa 1365-1384 (SEQ ID NO:2); peptide 2, aa 1389-1408 (SEQ ID NO:3)) based on the degree of homology in this region among different IP3R isoforms. Also, preference was given to regions that have beta-turn and/or α-helical structures, rather than random-coil or nonstructured sequences, expecting that one or both of the peptides could inhibit the Bcl-2-IP3R interaction. Furthermore, the C-terminal region of domain 3a1 was not selected because of its lower accessibility and unpredictable secondary structure (Invitrogen PeptideSelect Design Tool). The scrambled sequence of peptide 2 was also synthesized and used as a control. […] The inhibitory effect of peptide 2 on Bcl-2-IP3R interaction was also detected in coimmunoprecipitation assays employing both Bcl-2(+) WEHI7.2 cells (FIGS. 4A and 4B) and Jurkat cells (FIG. 4C). […]

Bcl-2-IP3R interaction [4] = biological target: T3, Bcl-2-IP3R interaction; assay: coimmunoprecipitation of Bcl-2 with IP3R from cell extracts; assay type: binding; set-up: expressed in transfected cells; host or cells: Bcl-2(+) WEHI7.2 cells; also Jurkat cells (endogenous Bcl-2); conditions: 400 μM peptide; Bcl-2(+) WEHI7.2 and Jurkat cell extracts
Protocol: FIG. 4 illustrates an IP3R Peptide Inhibits Bcl-2-IP3R Interaction but Not Bim-Bcl-2 Interaction. (A and D) IP3R was immunoprecipitated from extracts of Bcl-2(+) WEHI7.2 cells (C) or Jurkat cells in the presence of 400 μM peptides. Peptide 2, but not peptide 1 or control peptide, inhibited the Bcl-2-IP3R coimmunoprecipitation. Summary of Bcl-2 immunoblot signal intensities in three […] experiments identical to (C) (mean±SEM). (B) Bcl-2 was immunoprecipitated from Bcl-2(+) WEHI7.2 cell extracts in the presence of 400 μM peptides, and coimmunoprecipitation of Bim was detected by anti-Bim immunoblotting. […] (E) Summary of Bim immunoblot signal intensities in three experiments identical to (B) (mean±SEM).
Since the IP3R binding region was narrowed down to the 80 amino acid subdomain 3a1 (aa 1347-1426), we designed two 20 amino acid peptides (peptide 1, aa 1365-1384 (SEQ ID NO:2); peptide 2, aa 1389-1408 (SEQ ID NO:3)) based on the degree of homology in this region among different IP3R isoforms. […] The inhibitory effect of peptide 2 on Bcl-2-IP3R interaction was also detected in coimmunoprecipitation assays employing both Bcl-2(+) WEHI7.2 cells (FIGS. 4A and 4B) and Jurkat cells (FIG. 4C). […]

Chain of Bcl-XL (Q07817 whole entry, species assumed): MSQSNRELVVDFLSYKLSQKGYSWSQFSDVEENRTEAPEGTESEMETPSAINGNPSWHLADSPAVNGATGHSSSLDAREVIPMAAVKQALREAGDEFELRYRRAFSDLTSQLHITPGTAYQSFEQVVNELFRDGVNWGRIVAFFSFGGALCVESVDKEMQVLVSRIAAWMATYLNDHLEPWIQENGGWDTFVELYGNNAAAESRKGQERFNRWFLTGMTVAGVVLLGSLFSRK

Cc1cc2c(C(C)C)c(O)c(O)c(C=O)c2c(O)c1-c1c(C)cc2c(C(C)C)c(O)c(O)c(C=O)c2c1O [Gossypol, 1,6,7,1′,6′,7′-Hexahydroxy-5,5′-diisopropyl-3,3′-dimethyl-[2,2′]binaphthalenyl-8,8′-dicarbaldehyde]
IC50 (Bcl-XL): ~500 nM
IC50 (Bcl-B): ~500 nM
IC50 (Bfl-1): ~500 nM

MDENSPLMYHIHLVELLAVC (listed as Homo sapiens) [peptide 1, 20 amino acid peptide, aa 1365-1384 of IP3R subdomain 3a1]
enhancement of anti-CD3-induced Ca2+ elevation (Jurkat cells [1]): did not
enhancement of anti-CD3-induced Ca2+ elevation (WEHI7.2 cells): did not enhance
anti-CD3-induced apoptosis (percentage of apoptotic cells) (Jurkat cells [2]): did not have an effect
amount of Bcl-2 bound to GST-IP3R domain 3 (Bcl-2-IP3R interaction [3]): partially inhibited
inhibition of Bcl-2-IP3R coimmunoprecipitation (Bcl-2-IP3R interaction [4]): did not inhibit

From patent US8445441B2, “Inhibitors of BCL-2” (Case Western Reserve University, priority 2007, dated 2013)
